Measurements as given in patent publication US7569572B2, “Pyrazolo[4,3-D]pyrimidines” (Pfizer Inc, priority 2004, dated 2009).
Counter-ions that a name gives are not always drawn.

These compounds were tested against T1, human platelet PDE5 (Homo sapiens, UniProt O76074) (assay: Method B: PDE-5 Inhibition Scintillation Proximity Assay (SPA) - Human Platelet (modified protocol of Method A)). Conditions: cGMP substrate 50 nM, PDE5 isolated from human platelets.
T1 construct: utilizes PDE5 isolated from human platelets; from tissue; host or cells: human platelets
Format: biochemical
Protocol: Method B: PDE-5 Inhibition Scintillation Proximity Assay (SPA)—Human Platelet
This method is a modified protocol of Method A.
The assay measures the inhibition of human platelet PDE5 enzyme activity by a test compound in an in vitro assay that utilizes PDE5 isolated from human platelets. PDE5 catalyzes the hydrolysis of [^3H]cGMP to the 5′ nucleotide [^3H]GMP. [^3H]GMP binds to yttrium silicate SPA beads and is detected by scintillation counting. The inhibition of enzyme activity is calculated relative to total PDE5 activity of uninhibited controls.
PDE5 IC50 Assay: 96-Well Microtiter Plate Format
Buffer A: 20 mM Tris-HCl, 5 mM MgCl2, pH 7.4
Buffer B: 2 mg/ml BSA in Buffer A (enzyme buffer)
cGMP substrate: Final concentration of 50 nM in assay
The amount of ^3H-labeled substrate added depends upon the specific activity of [^3H]cGMP, and it is diluted in Buffer A.
PDE enzyme: Prepared in Buffer B. The dilution factor is determined by enzyme activity.
SPA beads: 4 mg/ml suspension prepared in dH2O.
Stocks of standard and test compounds are prepared at 2 mM in 100% DMSO. Compounds are serially diluted in separate dilution plates using an 8-point ⅕ log dilution format such that the starting concentration in the assay is 2 μM for an initial IC50 screen. 27 μl of Buffer A are added to the wells of the assay plates. From the dilution plates, 3 μl of diluted compounds are delivered in duplicate or 3 μl of 100% DMSO (for positive and negative controls) are added. 30 μl of enzyme are added. For the negative control wells, Buffer B is substituted in place of the enzyme. 30 μl of labeled substrate are added to all wells.
After incubating for 60 minutes at room temperature, the reaction is stopped with the addition of 30 μl of the yttrium silicate beads. These beads are dense and require constant agitation while being added to the plate. The plates are sealed and shaken on a plate shaker for fifteen minutes to allow the beads to bind the GMP product.
After allowing the beads to settle for 30 minutes, plates are read on a NXT TopCount and data is analyzed in the Bioassay Solver application. Percent inhibition values are calculated using the means of the 0% and 100% controls on each plate. The estimates of the 4-parameters of the logistic, sigmoid dose-response model are then calculated using the well-level percent inhibition values for each compound. These estimates are used to calculate the concentration that corresponds to 50% inhibition.

Row | IC50 | SMILES
1 | 0.58 nM | C[C@@H]1CN(c2nc(Nc3ccncn3)c3c(n2)c(CN2CCS(=O)(=O)CC2)nn3CCOCC(F)(F)F)CCN1 [Example 49, 3-[(1,1-Dioxidothiomorpholin-4-yl)methyl]-5-[(3R)-3-methylpiperazin-1-yl]-N-pyrimidin-4-yl-1-[2-(2,2,2-trifluoroethoxy)ethyl]-1H-pyrazolo[4,3-d]pyrimidin-7-amine trifluoroacetate]
2 | 7.39 nM | CCN(CC)Cc1nn(CCOCC(F)(F)F)c2c(Nc3ccncn3)nc(N(CC)CC)nc12 [Example 48, 3-[(Diethylamino)methyl]-N^5,N^5-diethyl-N^7-pyrimidin-4-yl-1-[2-(2,2,2-trifluoroethoxy)ethyl]-1H-pyrazolo[4,3-d]pyrimidine-5,7-diamine trifluoroacetate]
3 | 0.47 nM | C[C@@H]1CN(c2nc(Nc3ccncn3)c3c(n2)c(CN2CCN(C)CC2)nn3CCOCC(F)(F)F)CCN1 [Example 47, 5-[(3R)-3-Methylpiperazin-1-yl]-3-[(4-methylpiperazin-1-yl)methyl]-N-pyrimidin-4-yl-1-[2-(2,2,2-trifluoroethoxy)ethyl]-1H-pyrazolo[4,3-d]pyrimidin-7-amine trifluoroacetate]
